From ChEMBL document CHEMBL1649532, “Trypanocidal activity of 8-methyl-5'-{[(Z)-4-aminobut-2-enyl]-(methylamino)}adenosine (Genz-644131), an adenosylmethionine decarboxylase inhibitor” (Antimicrob Agents Chemother, 2009) come the findings set out here.

In brackets after ≈: the same amount, converted by molar mass. Activity calls are given as the source filed them. No cut-off for these calls is given here.

The test system of experiment [1] is Trypanosoma brucei brucei. Put plainly: Trypanocidal activity against Trypanosoma brucei brucei EATRO after 48 hrs. The experiment is classed as functional, organism-based.
The test system of experiment [2] is Trypanosoma brucei rhodesiense. Put plainly: Trypanocidal activity against Trypanosoma brucei rhodesiense KETRI243 after 48 hrs. The experiment is classed as functional, organism-based. The settings on record: KETRI243, 48 h.
Experiment [3] has as its system Trypanosoma brucei rhodesiense. Put plainly: Trypanocidal activity against Trypanosoma brucei rhodesiense KETRI2538 after 48 hrs. The experiment is classed as functional, organism-based. The settings on record: KETRI2538, 48 h.
Experiment [4] relates to Trypanosoma brucei rhodesiense. The experiment is described as follows: Ratio of Kinact to Kiapp for Trypanosoma brucei rhodesiense AdoMetDC.
The subject of experiment [5] is Trypanosoma brucei brucei. The experiment is described as follows: Trypanocidal activity against Trypanosoma brucei brucei EATRO infected in mouse assessed as mean survival time at 2 mg/kg, ip QD for 4 days. The settings on record: route intraperitoneal. The experiment is classed as functional.
The test system of experiment [6] is Trypanosoma brucei rhodesiense. Put plainly: Trypanocidal activity against Trypanosoma brucei rhodesiense KETRI2002 infected in mouse assessed as protection against trypanosomal infection at 2 mg/kg, ip QD administered 24 hrs postinfection. The experiment is classed as functional, organism-based. The arrangement: dose 2 mg/kg.
The test system of experiment [7] is Trypanosoma brucei rhodesiense. Put plainly: Trypanocidal activity against Trypanosoma brucei rhodesiense KETRI1992 infected in mouse assessed as protection against trypanosomal infection at 2 mg/kg, ip QD administered 24 hrs postinfection. Format: functional, organism-based. The arrangement: dose 2 mg/kg.
The test system of experiment [8] is Trypanosoma brucei rhodesiense. The experiment is described as follows: Trypanocidal activity against Trypanosoma brucei rhodesiense KETRI1992 infected in mouse assessed as average survival time at 2 mg/kg, ip QD administered 24 hrs postinfection. Format: functional. The settings on record: route intraperitoneal.
Experiment [9] concerns Trypanosoma brucei rhodesiense. Put plainly: Trypanocidal activity against Trypanosoma brucei rhodesiense KETRI243 infected in mouse assessed as protection against trypanosomal infection at 2 mg/kg, ip QD administered 24 hrs postinfection. The arrangement: dose 2 mg/kg. The experiment is classed as functional, organism-based.
Experiment [10] deals with Trypanosoma brucei rhodesiense. Put plainly: Trypanocidal activity against Trypanosoma brucei rhodesiense KETRI243 infected in mouse assessed as average survival time at 2 mg/kg, ip QD administered 24 hrs postinfection. Format: functional. The settings on record: route intraperitoneal.

For the compound `CN(C/C=C\CN)C[C@H]1O[C@@H](n2cnc3c(N)ncnc32)[C@H](O)[C@@H]1O`, the results for the IC50 in [1], in [2] and in experiment [3] were 0.05 µg/mL (≈ 0.143 µM), 0.02 µg/mL (≈ 0.0572 µM) and 0.021 µg/mL (≈ 0.0601 µM), respectively. In addition, the Activity in experiment [4] worked out at 1.5 min⁻¹ M⁻¹.
With `N=C(N)c1ccc(OCCCCCOc2ccc(C(=N)N)cc2)cc1` [PENTAMIDINE], the figures for the MST in [5], in experiment [8] and in [10] were >35 days, 18 days and 11.6 days, respectively. In addition, the outcome in [6] was Active. The outcome in experiment [7] and in experiment [9] was inactive.
